Assay results taken from the NIST ThermoML archive (doi:10.1021/acs.jced.8b00499).

Tests used:
[1] = refractive index (Na D-line) (dimensionless); conditions: 298.15 K; 101.33 kPa; Liquid; Standard Abbe refractometry
[2] = Liquid; for viscosity / mass density: 298.15 K, 101.33 kPa; for viscosity: Capillary tube (Ostwald / Ubbelohde) method; for mass density: Pycnometric method; for vapor or sublimation pressure: Ebulliometric method (Recirculating still)

CCC(C)O (stereo unspecified) [butan-2-ol]
Conditions	mass density [kg/m3]	refractive index	viscosity [mPa·s]
[1]	–	1.395	–
[2]	802.6	–	3.099

[2]
Conditions	vapor or sublimation pressure [kPa]
344.47 K	31.5
351.27 K	42.8
356.45 K	53.5
363.21 K	70.7
366.85 K	81.2
369.83 K	91.3
372.7 K	101.3

CCCCO [butan-1-ol]
Conditions	mass density [kg/m3]	refractive index	viscosity [mPa·s]
[1]	–	1.3972	–
[2]	806	–	2.534

Conditions	vapor or sublimation pressure [kPa]
[2], 390.9 K	101.3

CO [methanol]
Conditions	vapor or sublimation pressure [kPa]
[2], 337.83 K	101.3

CCC(C)OCOC (stereo unspecified) [2-(methoxymethoxy)butane]
Conditions	mass density [kg/m3]	refractive index	viscosity [mPa·s]
[1]	–	1.3833	–
[2]	836.4	–	0.561

[2]
Conditions	vapor or sublimation pressure [kPa]
346.4 K	31.5
349.99 K	36.4
356.07 K	44.4
359.47 K	49.6
363.89 K	57.2
367.43 K	65.1
372.48 K	75.7
376.45 K	85.1
379.35 K	92
382.8 K	101.3
385.21 K	109.1
388.5 K	119
391.24 K	127.9
